Measured values taken from paper PMC11427828, “The role of chloroplast SRP54 domains and its C-terminal tail region in post- and co-translational protein transport in vivo” (Journal of Experimental Botany, 2024).
Changes are numbered by the printed parent chain.

Experiments:
[1] = target: T1, cpSRP54–His (recombinant mature cpSRP54) (Arabidopsis thaliana, UniProt P37107); assay: isothermal titration calorimetry; format: binding; settings: read-out: dissociation constant
T1 construct: gene FFC; mature protein, residues 79-564 (transit peptide removed), C-terminal His6, E. coli Rosetta (DE3), EDTA-treated then SEC in Mg buffer
T1 sequence (P37107 79-564): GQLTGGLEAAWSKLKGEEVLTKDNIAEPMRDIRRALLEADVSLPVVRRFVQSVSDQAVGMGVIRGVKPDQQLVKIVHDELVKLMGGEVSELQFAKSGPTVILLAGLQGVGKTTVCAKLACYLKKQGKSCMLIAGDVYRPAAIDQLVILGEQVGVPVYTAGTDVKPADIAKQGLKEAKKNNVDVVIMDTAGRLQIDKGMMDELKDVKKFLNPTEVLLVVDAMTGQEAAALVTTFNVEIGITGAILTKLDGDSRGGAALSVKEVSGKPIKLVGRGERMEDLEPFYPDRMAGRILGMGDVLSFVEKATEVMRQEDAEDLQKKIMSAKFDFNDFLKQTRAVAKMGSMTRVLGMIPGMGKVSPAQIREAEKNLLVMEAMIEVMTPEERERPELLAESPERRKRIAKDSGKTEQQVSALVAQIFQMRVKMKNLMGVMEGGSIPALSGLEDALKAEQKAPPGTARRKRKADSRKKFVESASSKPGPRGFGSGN

[2] = target: T2, cpSRP54–His (recombinant mature cpSRP54) (Arabidopsis thaliana, UniProt P37107, Q185R); assay: isothermal titration calorimetry; format: binding; settings: read-out: dissociation constant
T2 construct: gene FFC; mature protein, residues 79-564 (transit peptide removed), C-terminal His6, E. coli Rosetta (DE3), EDTA-treated then SEC in Mg buffer
T2 sequence (P37107 79-564 Q185R): T1 sequence (P37107 79-564) with Q107R

## Nc1nc2c(ncn2[C@@H]2O[C@H](COP(=O)(O)OP(=O)(O)O)[C@@H](O)[C@H]2O)c(=O)[nH]1 [GDP]
[1]
  Kd: 30.2 µM
[2]
  Kd: 30.3 µM

## Nc1nc2c(ncn2[C@@H]2O[C@H](COP(=O)(O)OP(=O)(O)OP(=O)(O)O)[C@@H](O)[C@H]2O)c(=O)[nH]1 [GTP]
[1]
  Kd: 53.4 µM
[2]
  Kd: 17.3 µM
